# Experimental data published in ChEMBL document CHEMBL1201862, “PubChem BioAssay data set” (2004).
#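 Protocol summary: plate cells (96-well), add compound at 5 concentrations, incubate 48 h, interpolate endpoints linearly. GI50 = concentration required for 50% inhibition of growth.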 The source made the active and inactive calls. Rule as the data show it: active = GI50 up to about 1.1 µM and inactive = higher.
# Tests used:
# Test in all cases: NCI tumour cell line growth inhibition, 48 h
# [1] = tested on: A549
# [2] = tested on: UACC-62
# [3] = tested on: K562
# [4] = tested on: OVCAR-3
# [5] = tested on: OVCAR-4
# [6] = tested on: ACHN
# [7] = tested on: HCT-15
# [8] = tested on: NCI-H460
# [9] = tested on: SK-MEL-5
# [10] = tested on: PC-3
# [11] = tested on: SR
# [12] = tested on: Hs-578T
# [13] = tested on: MDA-MB-435
# [14] = tested on: A498
# [15] = tested on: HCT-116
# [16] = tested on: IGROV-1
# [17] = tested on: RXF 393
# [18] = tested on: CCRF-CEM
# [19] = tested on: MOLT-4
# [20] = tested on: HL-60
Compound,GI50 [1],GI50 [2],GI50 [3],GI50 [4],GI50 [5],GI50 [6],GI50 [7],GI50 [8],GI50 [9],GI50 [10],GI50 [11],GI50 [12],GI50 [13],GI50 [14],GI50 [15],GI50 [16],GI50 [17],GI50 [18],GI50 [19],GI50 [20]
NCCSCCc1ccccc1,> 100 µM (inactive),> 100 µM (inactive),> 100 µM (inactive),68.2 µM (inactive),> 100 µM (inactive),> 100 µM (inactive),> 100 µM,> 100 µM (inactive),> 100 µM (inactive),> 100 µM (inactive),88.3 µM (inactive),> 100 µM (inactive),> 100 µM (inactive),> 100 µM (inactive),> 100 µM (inactive),> 100 µM (inactive),> 100 µM (inactive),,,
COc1cc(C(=O)c2cocc2C(=O)c2ccc3c(c2)OCO3)cc(OC)c1OC,5.26 µM (inactive),0.311 µM (active),0.151 µM (active),0.304 µM (active),18.5 µM (inactive),0.977 µM (active),0.347 µM,0.658 µM (active),0.232 µM (active),0.355 µM (active),0.611 µM (active),0.274 µM (active),0.0916 µM (active),4.05 µM (inactive),0.333 µM (active),1.5 µM (inactive),0.67 µM (active),0.444 µM (active),0.991 µM (active),0.0946 µM (active)
Sc1ncc2[nH]nnc2n1,> 100 µM (inactive),,> 100 µM (inactive),> 100 µM (inactive),> 100 µM (inactive),> 100 µM (inactive),> 100 µM,> 100 µM (inactive),> 100 µM (inactive),> 100 µM (inactive),> 100 µM (inactive),> 100 µM (inactive),> 100 µM (inactive),> 100 µM (inactive),> 100 µM (inactive),> 100 µM (inactive),> 100 µM (inactive),> 100 µM (inactive),> 100 µM (inactive),> 100 µM (inactive)
CCCCCCNCCCNc1c2ccccc2nc2cccc([N+](=O)[O-])c12,0.00409 µM (active),0.0279 µM (active),0.00376 µM (active),0.0171 µM (active),0.0147 µM (active),0.0132 µM (active),0.0615 µM,0.00269 µM (active),0.0103 µM (active),0.0163 µM (active),0.0256 µM (active),0.0448 µM (active),0.0103 µM (active),0.164 µM (active),0.0352 µM (active),0.00873 µM (active),0.0148 µM (active),0.0229 µM (active),0.00658 µM (active),0.0151 µM (active)
CCOC(=O)NC(=S)NN(C)C1=NCC(C)(C)S1,> 100 µM (inactive),> 100 µM (inactive),> 100 µM (inactive),> 100 µM (inactive),,> 100 µM (inactive),> 100 µM,> 100 µM (inactive),> 100 µM (inactive),> 100 µM (inactive),> 100 µM (inactive),> 100 µM (inactive),> 100 µM (inactive),> 100 µM (inactive),> 100 µM (inactive),> 100 µM (inactive),> 100 µM (inactive),> 100 µM (inactive),> 100 µM (inactive),> 100 µM (inactive)
CC1(C)C/C(=N/O)c2c(nc3ccc4ccccc4c3c2-c2ccc(Cl)cc2)C1,19.4 µM (inactive),17.3 µM (inactive),19 µM (inactive),12.3 µM (inactive),13.8 µM (inactive),6.79 µM (inactive),16.4 µM,6.14 µM (inactive),37.2 µM (inactive),25.9 µM (inactive),4.75 µM (inactive),23.3 µM (inactive),60.1 µM (inactive),19.5 µM (inactive),11 µM (inactive),14.9 µM (inactive),17.6 µM (inactive),10.9 µM (inactive),18.2 µM (inactive),9.14 µM (inactive)
Cc1ccccc1C(=O)N1CCc2c([nH]c3ccccc23)C1,35.9 µM (inactive),16 µM (inactive),21.4 µM (inactive),27.5 µM (inactive),22.6 µM (inactive),34.9 µM (inactive),21.3 µM,21.7 µM (inactive),15.9 µM (inactive),14 µM (inactive),13.7 µM (inactive),29 µM (inactive),14.4 µM (inactive),21.5 µM (inactive),17.7 µM (inactive),25.7 µM (inactive),18.6 µM (inactive),24.8 µM (inactive),27.4 µM (inactive),17.5 µM (inactive)
CN1C2CCC1CC(CC(=O)NC(c1ccc(F)cc1)c1ccc(F)cc1)C2 (stereo not drawn),> 100 µM (inactive),,37.7 µM (inactive),> 100 µM (inactive),> 100 µM (inactive),> 100 µM (inactive),> 100 µM,> 100 µM (inactive),20.8 µM (inactive),> 100 µM (inactive),30.2 µM (inactive),> 100 µM (inactive),35.6 µM (inactive),> 100 µM (inactive),59.7 µM (inactive),> 100 µM (inactive),> 100 µM (inactive),2.2 µM (inactive),81.1 µM (inactive),0.242 µM (active)
COc1cc2cc(C(=O)N3CC(CCl)c4ccc([N+](C)(C)Cc5ccccc5[N+](=O)[O-])cc43)[nH]c2c(OC)c1OC (stereo not drawn),0.314 µM (active),1.01 µM (active),1.71 µM (inactive),2.94 µM (inactive),2.41 µM (inactive),0.348 µM (active),2.14 µM,,0.875 µM (active),1.68 µM (inactive),0.213 µM (active),2.4 µM (inactive),1.82 µM (inactive),0.398 µM (active),1.66 µM (inactive),1.82 µM (inactive),0.652 µM (active),0.966 µM (active),0.63 µM (active),2.77 µM (inactive)
CC1CCCN(CC(O)CN2CCCc3ccccc32)C1 (stereo not drawn),> 100 µM (inactive),> 100 µM (inactive),> 100 µM (inactive),> 100 µM (inactive),> 100 µM (inactive),> 100 µM (inactive),> 100 µM,,> 100 µM (inactive),> 100 µM (inactive),> 100 µM (inactive),56.2 µM (inactive),> 100 µM (inactive),> 100 µM (inactive),> 100 µM (inactive),> 100 µM (inactive),> 100 µM (inactive),> 100 µM (inactive),> 100 µM (inactive),8.02 µM (inactive)
CC(=O)/C(=C/NC(=S)Nc1ccccc1)C(=O)Nc1ccccc1C,> 100 µM (inactive),> 100 µM (inactive),96.2 µM (inactive),61.1 µM (inactive),> 100 µM (inactive),> 100 µM (inactive),> 100 µM,> 100 µM (inactive),61.2 µM (inactive),> 100 µM (inactive),> 100 µM (inactive),> 100 µM (inactive),> 100 µM (inactive),> 100 µM (inactive),> 100 µM (inactive),> 100 µM (inactive),> 100 µM (inactive),> 100 µM (inactive),> 100 µM (inactive),84.9 µM (inactive)
CCOC(=O)c1c(N2CCCC2)[nH]c(=O)c(C(c2ccc(N(C)C)cc2)c2c(O)c(C(=O)OCC)c(N3CCCC3)[nH]c2=O)c1O,> 100 µM (inactive),> 100 µM (inactive),> 100 µM (inactive),> 100 µM (inactive),> 100 µM (inactive),> 100 µM (inactive),> 100 µM,> 100 µM (inactive),> 100 µM (inactive),> 100 µM (inactive),> 100 µM (inactive),> 100 µM (inactive),> 100 µM (inactive),> 100 µM (inactive),> 100 µM (inactive),,> 100 µM (inactive),> 100 µM (inactive),> 100 µM (inactive),
NC(=O)C(=CNC(=S)Nc1cccc(C(F)(F)F)c1)C(N)=O,> 100 µM (inactive),> 100 µM (inactive),> 100 µM (inactive),> 100 µM (inactive),> 100 µM (inactive),> 100 µM (inactive),,> 100 µM (inactive),> 100 µM (inactive),> 100 µM (inactive),> 100 µM (inactive),> 100 µM (inactive),> 100 µM (inactive),> 100 µM (inactive),> 100 µM (inactive),,> 100 µM (inactive),> 100 µM (inactive),> 100 µM (inactive),> 100 µM (inactive)
O=[N+]([O-])c1ccc2c(/N=N/c3ccc4ccccc4c3O)c(O)cc(S(=O)(=O)O)c2c1,40.6 µM (inactive),7.21 µM (inactive),20.6 µM (inactive),4.89 µM (inactive),9.64 µM (inactive),7.13 µM (inactive),9.93 µM,38.5 µM (inactive),15.8 µM (inactive),18.2 µM (inactive),> 29.3 µM (inactive),41 µM (inactive),16.7 µM (inactive),35.3 µM (inactive),19.5 µM (inactive),8.65 µM (inactive),17.9 µM (inactive),8.77 µM (inactive),3.98 µM (inactive),9.06 µM (inactive)
COc1ccc(CCc2cc(OC)c(OC)c(OC)c2)cc1,0.0403 µM (active),0.0165 µM (active),0.012 µM (active),0.02 µM (active),5.05 µM (inactive),0.824 µM (active),0.0169 µM,0.0277 µM (active),0.0212 µM (active),0.043 µM (active),< 0.01 µM (active),0.0438 µM (active),< 0.01 µM (active),< 0.0207 µM (active),0.0214 µM (active),0.0612 µM (active),0.0205 µM (active),0.0204 µM (active),0.0331 µM (active),0.014 µM (active)
